From US20230416243A1, “Process for Preparing Heterocyclic Methanone Compounds and AZA-Bicyclo Intermediates Thereof” (ACTINOGEN MEDICAL LIMITED, priority 2020, published 2023)

Test: Solubility test in water
Format: physicochemical
Conditions: water at pH 4
Procedure: A saponification of A4 in aqueous conditions was conducted.

Solubility in water: soluble
Compound: O=C(O)c1csc(-c2cn[nH]c2)c1 [Compound A5]
